Test results: patent US5478928A, “2',3'-dideoxy-4'-thioribonucleosides and synthetic precursors thereof” (priority 1993, dated 1995)
In brackets after ≈: the same amount, converted by molar mass. Like-named read-outs stand apart in the source and are kept apart here.

Experiments:
AIDS = conditions: cited from earlier work
CEM cells = test: Cytotoxicity (cell viability) in CEM cells
Protocol: (§1) Compounds of the present invention are readily screened for anti-HIV activity by the following standard screening assay in CEM and MT2 cells.
(§2) 1. Compound dilution and delivery to the plates. Test compounds are solubilized in the appropriate vehicle such as distilled water, DMSO, methyl alcohol, or other vehicle. The maximum solubility is determined as appropriate. Latex gloves, lab coats, and masks are used during all phases of the handling process to prevent exposure to potentially harmful agents. At highest solubility, the test compound is prepared and stored at -20° C. until used by the screening laboratory. The first dilution of each compound is made tube with medium to yield a concentration two-fold that of the highest test concentration. Sterile titer tubes are then used to make serial one half log dilutions of each compound. Following dilution, the diluted compound is added to the appropriate well of a 96-well microtiter plate. Up to 12 dilutions can be conveniently assayed in triplicate on a single plate with all appropriate controls, including cell control, virus control, toxicity control, drug color control, medium control and plastic control. When testing includes only six dilutions, two drugs can be assayed on a single microtiter plate. The test compounds are added to the plate in a final volume of 100 microliters.
(§3) 2. Cells and virus. During the time that the test compound dilutions are prepared, cells are washed and counted. Viability is monitored by trypan blue dye exclusion and assays are not performed if the viability falls below 90%. Cells are maintained in an exponential growth phase and are split 1:2 on the day prior to assay to assure adequate growth rate. For the primary screen, the cell line utilized is CEM cells. […] However, both cell lines are available and being used at all times and can be substituted or used in addition to CEM cells as requested. Unless otherwise indicated, the medium is phenol red-free RPMI 1640 with 10% heat-inactivated fetal calf serum (FBS), glutamine and antibiotics. Cells are propagated at 37° C. in an atmosphere of 5% CO2 in air. The virus employed for this work is HIV-1 isolates IIIB and/or RF prepared by the acute infection process as follows: Briefly, virus infected cells are pelleted on a daily basis beginning at three days postinfection until the virus has killed all of the cells in the culture. Reverse transcriptase activity and p24 ELISA are used to identify pools with the greatest amount of virus. These 24-hour harvests are pooled, filtered and frozen at -90° C. Prior to use in the assay the virus is titered on all available cell lines in order to determine the amount of virus required in the assay. In general, pools produced by the acute virus method require the addition of one microliter of infectious virus per well resulting in the screening of drugs on a multiplicity of infection of 0.01. In this manner enough virus is prepared and frozen to complete over one thousand microtiter plates, allowing the testing of up to two thousand compounds from a single stock. […] Virus infection of the CEM cells is carried in a bulk infection process. The appropriate number of cells required to complete the assay are mixed with infectious virus in a conical centrifuge tube in a small total volume of 1-2 milliliters. Following a one hour incubation the infected cells are brought to the appropriate final concentration of 5×10^4 cells per milliliter with fresh tissue culture medium and 100 microliters are added to the appropriate experimental and virus control wells. Uninfected cells at the same concentration are plated for the toxicity controls and for the cell controls.
(§4) 3. Evaluation of CPE-inhibition. Following the addition of cells and test compounds to the microtiter plate, the plate is incubated for 6 days at 37° C.

[1] = test system: MT-2 cells infected with HIV virus (HIV-1 isolates IIIB and/or RF); test: Inhibition of HIV cytopathogenic effects (CPE) in MT-2 cells (MTT); assay type: cell-based; conditions: for TAI (total antiviral index): area between the cytotoxicity and the antiviral curves; for IC50: Human immunodeficiency virus 1, IIIB; for SI (selectivity index): TC25 divided by the ID50
Protocol: as §1, §2, §3, §4

MT-2 cells = test: Cytotoxicity (cell viability) in MT-2 cells
Protocol: as §1, §2, §3, §4

[2] = test system: CEM cells infected with HIV virus (HIV-1 isolates IIIB and/or RF); test: Inhibition of HIV cytopathogenic effects (CPE) in CEM cells (MTT); assay type: cell-based; conditions: for TAI (total antiviral index): area between the cytotoxicity and the antiviral curves; for SI (selectivity index): TC25 divided by the ID50; for IC50: Human immunodeficiency virus 1, IIIB, CCRF-CEM, read-out: IC50 (minimum drug concentration that inhibited CPE by 50%)
Protocol: as §1, §2, §3, §4

[3] = CEM cells, means of several experiments
[4] = MT-2 cells, means of several experiments
[5] = MT2, MT-2 cells, means of several experiments, read-out: IC50 (minimum drug concentration that inhibited CPE by 50%)

Row | IC50 [2, 3] [µg/mL] | Compound | TC25 (minimum drug concentration that reduced cell viability by 25%) (CEM cells; [3]) [µg/mL] | TAI (total antiviral index) ([1]; MT-2 cells) | TC25 (minimum drug concentration that reduced cell viability by 25%) (MT-2 cells; [4]) [µg/mL] | TAI (total antiviral index) ([2]; CEM cells) | SI (selectivity index) ([2]; CEM cells) | further results
1 |  | O=c1[nH]cnc2c1ncn2[C@H]1CC[C@@H](CO)O1 [dideoxyinosine] |  |  |  |  |  | side effects (AIDS): undesirable side effects
2 |  | Cc1cn([C@H]2CC[C@@H](CO)S2)c(=O)[nH]c1=O [4'-thio-3'-deoxythymidine, 4'-Thio-3'-deoxythymidine] | > 150 | > 4.0 | > 100 | 4.0 |  | 
3 |  | CNc1ncnc2c1ncn2[C@H]1CC[C@@H](CO)S1 [N^6 -Methyl-4'-thio-2',3'-dideoxyadenosine] |  | 1.0 | > 100 |  |  | 
4 | 0.45 (≈ 1.59 µM) | Cc1cn([C@H]2C[C@H](N=[N+]=[N-])[C@@H](CO)S2)c(=O)[nH]c1=O | > 100 |  |  | > 60.15 | > 222.02 | 
5 | 0.05 (≈ 0.237 µM) | Nc1ccn([C@H]2CC[C@@H](CO)O2)c(=O)n1 [DDC, dideoxycytidine, reference compound] |  | > 52 |  | > 63 | 120 | TC25 (minimum drug concentration that reduced cell viability by 25%) (CEM cells; human): 5.3 µg/mL (≈ 25.1 µM); side effects (AIDS): undesirable side effects; IC50 [1, 5]: 0.44 µg/mL (≈ 2.08 µM); TC25 (minimum drug concentration that reduced cell viability by 25%) (MT-2 cells; human): > 9.8 µg/mL
6 | 37 (≈ 139 µM) | Nc1nc(N)c2ncn([C@H]3CC[C@@H](CO)S3)c2n1 [9-(4-Thio-2,3-dideoxy-D-ribofuranosyl)-2,6-diaminopurine] | 97.0 (≈ 364 µM) |  |  | 21.0 | 2.6 | 
7 |  | OC[C@@H]1CC[C@H](n2cnc3c(O)ncnc32)S1 [4'-thio-2',3'-dideoxyinosine, 4'-Thio-2',3'-dideoxyinosine] |  | > 4.0 | > 100 |  |  | 
8 | 1 (≈ 4.4 µM) | Nc1ccn([C@H]2CC[C@@H](CO)S2)c(=O)n1 [4'-thio-2',3'-dideoxycytidine, 4'-Thio-2',3'-dideoxycytidine] | > 100 |  |  | > 65 | > 100 | 
9 |  | Nc1nc(Cl)nc2c1ncn2[C@H]1CC[C@@H](CO)S1 [9-(4-Thio-2,3-dideoxy-D-ribofuranosyl)-2-chloro-6-aminopurine] | 5.74 (≈ 20.1 µM) |  |  |  |  | 
10 |  | OC[C@@H]1CC[C@H](n2cnc3c(Cl)ncnc32)S1 [9-(4-Thio-2,3-dideoxy-D-ribofuranosyl)-6-chloropurine] |  | 0.0 | 21 (≈ 77.6 µM) |  |  | 
11 |  | Nc1ncnc2c1ncn2[C@H]1CC[C@@H](CO)S1 [4-'-thio-2'3'-dideoxyadenosine, 4'-Thio-2',3'-dideoxyadenosine] |  | > 17 | > 100 |  |  | IC50 [1, 5]: 80 µg/mL (≈ 318 µM); SI (selectivity index) ([1]; MT-2 cells): 1.3
12 |  | Cc1cn([C@H]2C[C@H](N=[N+]=[N-])[C@@H](CO)O2)c(=O)[nH]c1=O [AZT, 3'-azido-3'-deoxythymidine, reference compound] | > 10 | > 82 | 9.3 (≈ 34.8 µM) | > 93 | > 313 | potency for the treatment of AIDS (AIDS; background): particularly potent; side effects (AIDS; background): undesirable side effects; IC50 ([1]; MT2, read-out: IC50 (minimum drug concentration that inhibited CPE by 50%)): 0.14 µg/mL (≈ 0.524 µM); SI (selectivity index) ([1]; MT-2 cells): > 160; IC50 [2]: < 0.03 µg/mL
13 |  | Nc1nc2c(ncn2[C@H]2CC[C@@H](CO)S2)c(=O)[nH]1 [4'-thio-2',3'-dideoxy-guanosine, 4'-Thio-2',3'-dideoxy-guanosine] | > 100 | 11.0 | > 200 | 0.0 |  | IC50 [1, 5]: 98 µg/mL (≈ 367 µM); SI (selectivity index) ([1]; MT-2 cells): 1.6
